Measured values taken from patent US11242337B2, “Compounds useful for treating gastrointestinal tract disorders” (Ardelyx, Inc., priority 2017, dated 2022).
Structures can show the parent of a compound that is named as a salt.

Tests used:
NHE3 [1] = molecular target: T1, NHE3 (Homo sapiens, UniProt P48764); experiment: Cell-based assay of NHE-3 activity (persistent inhibition), human; details: human Persistence, 60 min incubation then washout
T1 construct: expressed in transfected cells
T1 sequence (P48764 26-834): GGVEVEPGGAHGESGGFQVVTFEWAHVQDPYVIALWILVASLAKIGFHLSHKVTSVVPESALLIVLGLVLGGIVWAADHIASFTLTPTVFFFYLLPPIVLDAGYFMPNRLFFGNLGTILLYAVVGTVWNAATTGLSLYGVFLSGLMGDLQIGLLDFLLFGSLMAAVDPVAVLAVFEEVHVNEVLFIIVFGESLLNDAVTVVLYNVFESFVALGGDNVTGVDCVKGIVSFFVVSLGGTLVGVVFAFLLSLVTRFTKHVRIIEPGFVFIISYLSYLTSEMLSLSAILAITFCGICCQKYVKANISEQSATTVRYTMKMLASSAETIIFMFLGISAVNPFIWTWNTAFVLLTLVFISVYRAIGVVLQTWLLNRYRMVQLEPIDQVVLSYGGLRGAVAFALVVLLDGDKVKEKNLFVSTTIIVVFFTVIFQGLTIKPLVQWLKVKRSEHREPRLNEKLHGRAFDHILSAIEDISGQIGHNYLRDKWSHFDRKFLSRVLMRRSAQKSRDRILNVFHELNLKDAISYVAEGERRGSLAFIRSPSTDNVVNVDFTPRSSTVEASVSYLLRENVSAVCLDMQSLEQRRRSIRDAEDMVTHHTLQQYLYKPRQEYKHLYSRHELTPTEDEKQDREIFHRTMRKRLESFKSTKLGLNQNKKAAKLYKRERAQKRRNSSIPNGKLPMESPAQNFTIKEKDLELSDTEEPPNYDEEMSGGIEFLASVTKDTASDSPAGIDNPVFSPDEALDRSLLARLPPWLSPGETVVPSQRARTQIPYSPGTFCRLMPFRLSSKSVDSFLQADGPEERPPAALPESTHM
T1 sequence (Q99653 2-195 partner limits assumed): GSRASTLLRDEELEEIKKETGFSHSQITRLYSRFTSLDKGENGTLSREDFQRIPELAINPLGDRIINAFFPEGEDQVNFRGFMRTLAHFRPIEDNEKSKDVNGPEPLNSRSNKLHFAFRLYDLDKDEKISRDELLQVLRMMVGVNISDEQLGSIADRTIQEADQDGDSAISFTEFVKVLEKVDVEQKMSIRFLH
Outline: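 Persistent inhibition: compound (0-30 μM, 60 min, RT, NaCl-HEPES pH 7.4) removed before assay. Human NHE3/NHERF2 PS120 cells were then BCECF-loaded during NH4Cl pulse (30 min, 37 °C), acidified in Na+-free buffer, and Na+ added 10 min after washout; antiport measured as initial fluorescence-ratio change per minute.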

NHE3 [2] = molecular target: T1, NHE3; experiment: Cell-based assay of NHE-3 activity (pre-incubation inhibition), human; details: human Preincubation; for pIC50: 0-30 μM test compound
Outline: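 Activity read as initial rate of BCECF fluorescence ratio change per minute (ex 439/505, em 538 nm) following NH4Cl prepulse acid loading. Compound (0–30 μM) present during 10 min Na+-free acidification at room temperature; cells were PS120 fibroblasts stably co-expressing human NHE3 and NHERF2.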

Question: Which results are given for `N[C@@H]1CCCN([C@H]2Cc3c(Cl)cc(Cl)cc3[C@@H]2Oc2ccc(S(=O)(=O)N3CCC(OCCOCCNC(=O)NCCCCNC(=O)NCCOCCOC4CCN(S(=O)(=O)c5ccc(O[C@H]6c7cc(Cl)cc(Cl)c7C[C@@H]6N6CCC[C@@H](N)C6)cc5)CC4)CC3)cc2)C1` [Example 95, 3-[2-[2-([1-[(4-[[(1S,2S)-2-[(3R)-3-Aminopiperidin-1-yl]-4,6-dichloro-2,3-dihydro-1H-inden-1-yl]oxy]benzene)sulfonyl]piperidin-4-yl]oxy)ethoxy]ethyl]-1-[4-[([2-[2-([1-[(4-[[(1S,2S)-2-[(3R)-3-aminopiperidin-1-yl]-4,6-dichloro-2,3-dihydro-1H-inden-1-yl]oxy]benzene)sulfonyl]piperidin-4-yl]oxy)ethoxy]ethyl]carbamoyl)amino]butyl]urea]?
Answer: % inhibition (NHE3 [1]): C (>70%); pIC50 (NHE3 [1]): C (NHE3 pIC50 > 7); % inhibition (NHE3 [2]): C (>70%); pIC50 (NHE3 [2]): C (NHE3 pIC50 > 7)

Question: With `CC(C)(COCCOCCNC(=O)NCCCCNC(=O)NCCOCCOCC(C)(C)NS(=O)(=O)c1ccc(O[C@H]2c3cc(Cl)cc(Cl)c3C[C@@H]2N2CCC[C@@H](N)C2)cc1)NS(=O)(=O)c1ccc(O[C@H]2c3cc(Cl)cc(Cl)c3C[C@@H]2N2CCC[C@@H](N)C2)cc1` [Example 100, 1-[2-(2-[2-[(4-[[(1S,2S)-2-[(3R)-3-Aminopiperidin-1-yl]-4,6-dichloro-2,3-dihydro-1H-inden-1 yl]oxy]benzene)sulfonamido]-2-methylpropoxy]ethoxy)ethyl]-3-[4-([[2-(2-[2-[(4-[[(1S,2S)-2-[(3R)-3-aminopiperidin-1-yl]-4,6-dichloro-2,3-dihydro-1H-inden-1-yl]oxy]benzene)sulfonamido]-2-methylpropoxy]ethoxy)ethyl]carbamoyl]amino)butyl]urea; hydrochloride] as the molecule, how does the “% inhibition” value (NHE3 [1]) read?
Answer: The value was “C (>70%)”.

Question: What about the pIC50 (NHE3 [1]) of the same molecule?
Answer: Its pIC50 is “C (NHE3 pIC50 > 7)”.

Question: What about the “% inhibition” value (NHE3 [2]) of the same molecule?
Answer: The value was “C (>70%)”.

Question: And the pIC50 (NHE3 [2])?
Answer: The pIC50 was “C (NHE3 pIC50 > 7)”.

Question: How did the “% inhibition” value (NHE3 [1]) turn out when `O=C(NCCCCNC(=O)NCCOCCOCCNS(=O)(=O)c1ccc(O[C@H]2c3cc(Cl)cc(Cl)c3C[C@@H]2N2CC3CCC2CC3)cc1)NCCOCCOCCNS(=O)(=O)c1ccc(O[C@H]2c3cc(Cl)cc(Cl)c3C[C@@H]2N2CC3CCC2CC3)cc1` [Example 69, 1-[2-(2-[2-[(4-[[(1S,2S)-2-[2-Azabicyclo[2.2.2]octan-2-yl]-4,6-dichloro-2,3-dihydro-1H-inden-1-yl]oxy]benzene)sulfonamido]ethoxy]ethoxy)ethyl]-3-[4-([[2-(2-[2-[(4-[[(1S,2S)-2-[2-azabicyclo[2.2.2]octan-2-yl]-4,6-dichloro-2,3-dihydro-1H-inden-1-yl]oxy]benzene)sulfonamido]ethoxy]ethoxy)ethyl]carbamoyl]amino)butyl]urea] was run?
Answer: Its value is “C (>70%)”.

Question: And the IC50 (NHE3 [1])?
Answer: Its IC50 is 0.1 to 1 µM.

Question: What about the “% inhibition” value (NHE3 [2]) of the same molecule?
Answer: Its value is “C (>70%)”.

Question: What about the pIC50 (NHE3 [2]) of the same molecule?
Answer: The pIC50 was “C (NHE3 pIC50 > 7)”.

Question: With `N#Cc1cc(Cl)cc2c1C[C@H](N1C[C@@H]3C[C@H]1CN3)[C@H]2Oc1ccc(S(=O)(=O)N[C@@H]2CCN(CCOCCNC(=O)NCCCCNC(=O)NCCOCCN3CC[C@@H](NS(=O)(=O)c4ccc(O[C@H]5c6cc(Cl)cc(C#N)c6C[C@@H]5N5C[C@@H]6C[C@H]5CN6)cc4)C3)C2)cc1` [Example 131, 4-([(1S,2S)-2-[(1S,4S)-2,5-Diazabicyclo[2.2.1]heptan-2-yl]-6-chloro-4-cyano-2,3-dihydro-1H-inden-1-yl]oxy)-N—[(R)-1-(20-[(R)-3-([4-([(1S,2S)-2-[(1S,4S)-2,5-diazabicyclo[2.2.1]heptan-2-yl]-6-chloro-4-cyano-2,3-dihydro-1H-inden-1-yl]oxy)phenyl]sulfonamido)pyrrolidin-1-yl]-7,14-dioxo-3,18-dioxa-6,8,13,15-tetraazaicosyl)pyrrolidin-3-yl]benzenesulfonamide; bis(trifluoroacetic acid)] as the molecule, how does the “% inhibition” value (NHE3 [1]) read?
Answer: Its value is “C (>70%)”.

Question: And the IC50 (NHE3 [1])?
Answer: The IC50 was 0.1 to 1 µM.

Question: And the “% inhibition” value (NHE3 [2])?
Answer: The value was “C (>70%)”.

Question: What about the pIC50 (NHE3 [2]) of the same molecule?
Answer: Its pIC50 is “C (NHE3 pIC50 > 7)”.

Question: What does the source list for `CN(C)[C@H]1Cc2c(Cl)cc(Cl)cc2[C@@H]1Oc1ccc(S(=O)(=O)NCCCCCCCCNC(=O)NCCCCNC(=O)NCCCCCCCCNS(=O)(=O)c2ccc(O[C@H]3c4cc(Cl)cc(Cl)c4C[C@@H]3N(C)C)cc2)cc1` [Example 64, 3-[8-[(4-[[(1S,2S)-4,6-Dichloro-2-(diamethylamino)-2,3-dihydro-1H-inden-1-yl]oxy]benzene)sulfonamido]octyl]-1-[4-[([8-[(4-[[(1S,2S)-4,6-dichloro-2-(diamethylamino)-2,3-dihydro-1H-inden-1-yl]oxy]benzene)sulfonamido]octyl]carbamoyl)amino]butyl]urea; bis(trifluoroacetic acid)]?
Answer: % inhibition (NHE3 [1]): A (NHE3 < 40%); % inhibition (NHE3 [2]): A (NHE3 < 40%)

Question: `O=C(NCCCCNC(=O)NCCOCCOCCNS(=O)(=O)c1ccc(O[C@H]2c3cc(Cl)cc(Cl)c3C[C@@H]2N2CC3CCC2C3)cc1)NCCOCCOCCNS(=O)(=O)c1ccc(O[C@H]2c3cc(Cl)cc(Cl)c3C[C@@H]2N2CC3CCC2C3)cc1` [Example 68] was tested. Which “% inhibition” value (NHE3 [1]) did it give?
Answer: The value was “C (>70%)”.

Question: And the pIC50 (NHE3 [1])?
Answer: Its pIC50 is “C (NHE3 pIC50 > 7)”.

Question: What about the “% inhibition” value (NHE3 [2]) of the same molecule?
Answer: Its value is “C (>70%)”.

Question: And the pIC50 (NHE3 [2])?
Answer: Its pIC50 is “C (NHE3 pIC50 > 7)”.

Question: What does the source list for `C[C@H]1CN([C@H]2Cc3c(C#N)cc(Cl)cc3[C@@H]2Oc2ccc(S(=O)(=O)N[C@H]3CCN(CCOCCNC(=O)NCCCCNC(=O)NCCOCCN4CC[C@H](NS(=O)(=O)c5ccc(O[C@H]6c7cc(Cl)cc(C#N)c7C[C@@H]6N6CCN[C@@H](C)C6)cc5)C4)C3)cc2)CCN1` [Example 134, 4-([(1S,2S)-6-Chloro-4-cyano-2-[(S)-3-methylpiperazin-1-yl]-2,3-dihydro-1H-inden-1-yl]oxy)-N—[(S)-1-(20-[(S)-3-([4-([(1S,2S)-6-chloro-4-cyano-2-[(S)-3-methylpiperazin-1-yl]-2,3-dihydro-1H-inden-1-yl]oxy)phenyl]sulfonamido)pyrrolidin-1-yl]-7,14-dioxo-3,18-dioxa-6,8,13,15-tetraazaicosyl)pyrrolidin-3-yl]benzenesulfonamide; bis(trifluoroacetic acid)]?
Answer: % inhibition (NHE3 [1]): C (>70%); pIC50 (NHE3 [1]): C (NHE3 pIC50 > 7); % inhibition (NHE3 [2]): C (>70%); pIC50 (NHE3 [2]): C (NHE3 pIC50 > 7)

Question: With `Cc1cc(S(=O)(=O)NCCOCCOCCNC(=O)NCCCCNC(=O)NCCOCCOCCNS(=O)(=O)c2ccc(O[C@H]3c4cc(Cl)cc(Cl)c4C[C@@H]3N3CCC[C@@H](N)C3)c(C)c2)ccc1O[C@H]1c2cc(Cl)cc(Cl)c2C[C@@H]1N1CCC[C@@H](N)C1` [Example 1, 1-[2-(2-[2-[(4-[[(1S,2S)-2-[(3R)-3-Aminopiperidin-1-yl]-4,6-dichloro-2,3-dihydro-1H-inden-1-yl]oxy]-3-methylbenzene)sulfonamido]ethoxy]ethoxy)ethyl]-3-[4-([[2-(2-[2-([4-[[(1S,2S)-2-[(3R)-3-aminopiperidin-1-yl]-4,6-dichloro-2,3-dihydro-1H-inden-1-yl]oxy]-3-methylbenzene)sulfonamido]ethoxy]ethoxy)ethyl]carbamoyl]amino)butyl]urea] as the molecule, how does the “% inhibition” value (NHE3 [1]) read?
Answer: The value was “B (40-70%)”.

Question: And the pIC50 (NHE3 [1])?
Answer: The pIC50 was “C (NHE3 pIC50 > 7)”.

Question: And the “% inhibition” value (NHE3 [2])?
Answer: The value was “C (>70%)”.

Question: And the pIC50 (NHE3 [2])?
Answer: Its pIC50 is “C (NHE3 pIC50 > 7)”.

Question: For `CN1CCCN([C@H]2Cc3c(C#N)cc(Cl)cc3[C@@H]2Oc2ccc(S(=O)(=O)N[C@@H]3CCN(CCOCCNC(=O)NCCCCNC(=O)NCCOCCN4CC[C@@H](NS(=O)(=O)c5ccc(O[C@H]6c7cc(Cl)cc(C#N)c7C[C@@H]6N6CCCN(C)CC6)cc5)C4)C3)cc2)CC1` [Example 129], which “% inhibition” value (NHE3 [1]) is on record?
Answer: Its value is “A (NHE3 < 40%)”.

Question: What about the pIC50 (NHE3 [1]) of the same molecule?
Answer: The pIC50 was “C (NHE3 pIC50 > 7)”.

Question: And the “% inhibition” value (NHE3 [2])?
Answer: Its value is “A (NHE3 < 40%)”.

Question: What about the pIC50 (NHE3 [2]) of the same molecule?
Answer: Its pIC50 is “A (NHE3 pIC50 < 6)”.
